Results published in PubChem BioAssay (NCI).
Several values for one entry are separate records, joined by “and”; a condition that tells them apart may be missing. Equal entries are not always repeated.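 Results reflect a 48-hour exposure of cells in 96-well plates to compound at five concentrations. GI50 = concentration required for 50% inhibition of growth. Definition used: TGI = concentration required for complete inhibition of growth.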 Activity calls are given as the source filed them. Cut-off read from the data, not from the text of the source: active = GI50 below about 0.43 µM; inactive = the rest.

Columns and labels:
Assay in all cases: DTP human tumour cell line panel, 48 h
UACC-62 melanoma = test system: UACC-62 melanoma
SNB-19 CNS = test system: SNB-19 CNS
NCI-H23 lung = test system: NCI-H23 lung
DMS 114 small cell lung = test system: DMS 114 small cell lung
EKVX NSCLC = test system: EKVX NSCLC
RPMI-8226 leukemia = test system: RPMI-8226 leukemia
SF-539 CNS = test system: SF-539 CNS
IGROV1 ovarian = test system: IGROV1 ovarian
ACHN renal = test system: ACHN renal
SW-620 colon = test system: SW-620 colon
SN12C renal = test system: SN12C renal
KM20L2 colon = test system: KM20L2 colon
K-562 leukemia = test system: K-562 leukemia
HCC-2998 colon = test system: HCC-2998 colon
HL-60(TB) leukemia = test system: HL-60(TB) leukemia
U251 CNS = test system: U251 CNS
OVCAR-3 ovarian = test system: OVCAR-3 ovarian
RXF 393 renal = test system: RXF 393 renal
MOLT-4 leukemia = test system: MOLT-4 leukemia
M19-MEL melanoma = test system: M19-MEL melanoma
SK-MEL-2 melanoma = test system: SK-MEL-2 melanoma
HT29 colon = test system: HT29 colon
HOP-62 NSCLC = test system: HOP-62 NSCLC
SK-MEL-28 melanoma = test system: SK-MEL-28 melanoma
LOX IMVI melanoma = test system: LOX IMVI melanoma
SNB-78 CNS = test system: SNB-78 CNS
LXFL 529 NSCLC = test system: LXFL 529 NSCLC
COLO 205 colon = test system: COLO 205 colon
M14 melanoma = test system: M14 melanoma
OVCAR-4 ovarian = test system: OVCAR-4 ovarian
NCI-H460 lung = test system: NCI-H460 lung
DMS 273 small cell lung = test system: DMS 273 small cell lung
UACC-257 melanoma = test system: UACC-257 melanoma
OVCAR-8 ovarian = test system: OVCAR-8 ovarian
HOP-18 NSCLC = test system: HOP-18 NSCLC
UO-31 renal = test system: UO-31 renal
HCT-116 colon = test system: HCT-116 colon
A549 NSCLC = test system: A549 NSCLC
TK-10 renal = test system: TK-10 renal
HCT-15 colon = test system: HCT-15 colon
HOP-92 NSCLC = test system: HOP-92 NSCLC
KM12 colon = test system: KM12 colon
SK-MEL-5 melanoma = test system: SK-MEL-5 melanoma
OVCAR-5 ovarian = test system: OVCAR-5 ovarian
CCRF-CEM leukemia = test system: CCRF-CEM leukemia
SR leukemia = test system: SR leukemia
SF-268 CNS = test system: SF-268 CNS
SNB-75 CNS = test system: SNB-75 CNS
T-47D breast = test system: T-47D breast
MCF7 breast = test system: MCF7 breast
MDA-N = test system: MDA-N
HS 578T breast = test system: HS 578T breast
786-0 renal = test system: 786-0 renal
CAKI-1 renal = test system: CAKI-1 renal
NCI-H226 lung = test system: NCI-H226 lung
A498 renal = test system: A498 renal
NCI-H522 lung = test system: NCI-H522 lung
PC-3 prostate = test system: PC-3 prostate
SF-295 CNS = test system: SF-295 CNS
DU-145 prostate = test system: DU-145 prostate
MDA-MB-435 = test system: MDA-MB-435
MDA-MB-231 breast = test system: MDA-MB-231 breast
MALME-3M melanoma = test system: MALME-3M melanoma
BT-549 breast = test system: BT-549 breast
SK-OV-3 ovarian = test system: SK-OV-3 ovarian

CCNC(=S)NNC(=O)c1nsc2ccccc12
TGI (UACC-62 melanoma): > 100000 nM
TGI (SNB-19 CNS): > 100000 nM
TGI (NCI-H23 lung): > 100000 nM
TGI (DMS 114 small cell lung): > 100000 nM
TGI (EKVX NSCLC): > 100000 nM
TGI (RPMI-8226 leukemia): > 100000 nM
TGI (SF-539 CNS): > 100000 nM
TGI (IGROV1 ovarian): > 100000 nM
TGI (ACHN renal): > 100000 nM
TGI (SW-620 colon): > 100000 nM
TGI (SN12C renal): > 100000 nM
TGI (KM20L2 colon): > 100000 nM
TGI (K-562 leukemia): > 100000 nM
TGI (HCC-2998 colon): > 100000 nM
TGI (HL-60(TB) leukemia): > 100000 nM
TGI (U251 CNS): > 100000 nM
TGI (OVCAR-3 ovarian): > 100000 nM
TGI (RXF 393 renal): > 100000 nM
TGI (MOLT-4 leukemia): > 100000 nM
TGI (M19-MEL melanoma): > 100000 nM
TGI (SK-MEL-2 melanoma): > 100000 nM
TGI (HT29 colon): > 100000 nM
TGI (HOP-62 NSCLC): > 100000 nM
TGI (SK-MEL-28 melanoma): > 100000 nM
TGI (LOX IMVI melanoma): > 100000 nM
TGI (SNB-78 CNS): > 100000 nM
TGI (LXFL 529 NSCLC): > 100000 nM
TGI (COLO 205 colon): > 100000 nM
TGI (M14 melanoma): > 100000 nM
TGI (OVCAR-4 ovarian): > 100000 nM
TGI (NCI-H460 lung): > 100000 nM
TGI (DMS 273 small cell lung): > 100000 nM
TGI (UACC-257 melanoma): > 100000 nM
TGI (OVCAR-8 ovarian): > 100000 nM
TGI (HOP-18 NSCLC): > 100000 nM
TGI (UO-31 renal): > 100000 nM
TGI (HCT-116 colon): > 100000 nM
TGI (A549 NSCLC): > 100000 nM
TGI (TK-10 renal): > 100000 nM
TGI (HCT-15 colon): > 100000 nM
TGI (HOP-92 NSCLC): > 100000 nM
TGI (KM12 colon): > 100000 nM
TGI (SK-MEL-5 melanoma): > 100000 nM
TGI (OVCAR-5 ovarian): > 100000 nM
TGI (CCRF-CEM leukemia): > 100000 nM
TGI (SR leukemia): > 100000 nM
TGI (SF-268 CNS): > 100000 nM
TGI (SNB-75 CNS): > 100000 nM

COc1cccc2c1C(=O)c1c(O)c3c(c(O)c1C2=O)C[C@@](O)(C(=O)CO)C[C@@H]3OC1CC(N)C(O)C(C)O1 (some centres not stated)
GI50 (UACC-62 melanoma): 149 nM
outcome (UACC-62 melanoma): inactive
outcome (SNB-19 CNS): inactive
outcome (NCI-H23 lung): inactive
TGI (DMS 114 small cell lung): 591 nM
outcome (EKVX NSCLC): inactive
outcome (T-47D breast): inactive
outcome (RPMI-8226 leukemia): inactive
GI50 (SF-539 CNS): 191 nM
outcome (SF-539 CNS): inactive
GI50 (IGROV1 ovarian): 272 nM
outcome (IGROV1 ovarian): inactive
GI50 (ACHN renal): 105 nM and 81 nM and 176 nM
outcome (ACHN renal): inactive
outcome (MCF7 breast): inactive
outcome (SW-620 colon): inactive
outcome (SN12C renal): inactive
TGI (MDA-N): 1110 nM and 1880 nM and 1410 nM
outcome (MDA-N): inactive
TGI (KM20L2 colon): 15900 nM
GI50 (HS 578T breast): < 10 nM
outcome (HS 578T breast): inactive
GI50 (K-562 leukemia): 218 nM
outcome (K-562 leukemia): inactive
outcome (HCC-2998 colon): inactive
outcome (HL-60(TB) leukemia): inactive
outcome (U251 CNS): inactive
outcome (OVCAR-3 ovarian): inactive
GI50 (RXF 393 renal): 402 nM
TGI (RXF 393 renal): 1.04 µM [middle of 4 runs]
outcome (RXF 393 renal): inactive
GI50 (MOLT-4 leukemia): < 22.1 nM
outcome (MOLT-4 leukemia): inactive
TGI (M19-MEL melanoma): 974 nM
outcome (SK-MEL-2 melanoma): inactive
outcome (HT29 colon): inactive
outcome (786-0 renal): inactive
GI50 (HOP-62 NSCLC): 145 nM
outcome (HOP-62 NSCLC): inactive
GI50 (SK-MEL-28 melanoma): 593 nM
TGI (SK-MEL-28 melanoma): 1.7 µM [middle of 4 runs]
outcome (SK-MEL-28 melanoma): inactive
outcome (CAKI-1 renal): inactive
GI50 (LOX IMVI melanoma): 39.2 nM and 91.7 nM
TGI (SNB-78 CNS): 8730 nM
outcome (NCI-H226 lung): inactive
GI50 (A498 renal): 81.4 nM and 195 nM
TGI (A498 renal): 550 nM and 696 nM
outcome (A498 renal): inactive
GI50 (COLO 205 colon): 498 nM
outcome (COLO 205 colon): inactive
GI50 (M14 melanoma): 432 nM
outcome (M14 melanoma): inactive
TGI (OVCAR-4 ovarian): 5.19 µM [middle of 4 runs]
outcome (OVCAR-4 ovarian): inactive
outcome (NCI-H460 lung): inactive
GI50 (NCI-H522 lung): 193 nM
outcome (NCI-H522 lung): inactive
TGI (DMS 273 small cell lung): 2450 nM
outcome (UACC-257 melanoma): inactive
outcome (PC-3 prostate): inactive
outcome (OVCAR-8 ovarian): inactive
TGI (HOP-18 NSCLC): 13600 nM
GI50 (SF-295 CNS): 210 nM
outcome (SF-295 CNS): inactive
GI50 (DU-145 prostate): 169 nM [middle of 4 runs]
outcome (DU-145 prostate): inactive
GI50 (UO-31 renal): 1850 nM
outcome (UO-31 renal): inactive
GI50 (MDA-MB-435): 607 nM
TGI (MDA-MB-435): 1.87 µM [middle of 4 runs]
outcome (MDA-MB-435): inactive
outcome (HCT-116 colon): inactive
GI50 (A549 NSCLC): 109 nM and 60.9 nM and 106 nM
outcome (A549 NSCLC): inactive
outcome (TK-10 renal): inactive
GI50 (MDA-MB-231 breast): 949 nM
TGI (MDA-MB-231 breast): 4.83 µM [middle of 4 runs]
outcome (MDA-MB-231 breast): inactive
GI50 (HCT-15 colon): 3880 nM
outcome (HCT-15 colon): inactive
GI50 (HOP-92 NSCLC): 306 nM
outcome (HOP-92 NSCLC): inactive
outcome (KM12 colon): inactive
TGI (SK-MEL-5 melanoma): 340 nM [middle of 5 runs]
outcome (SK-MEL-5 melanoma): inactive
TGI (OVCAR-5 ovarian): 5.37 µM [middle of 4 runs]
outcome (OVCAR-5 ovarian): inactive
outcome (CCRF-CEM leukemia): inactive
GI50 (MALME-3M melanoma): 136 nM
TGI (MALME-3M melanoma): 628 nM [middle of 5 runs]
outcome (MALME-3M melanoma): inactive
outcome (SR leukemia): inactive
outcome (BT-549 breast): inactive
GI50 (SF-268 CNS): 219 nM
outcome (SF-268 CNS): inactive
outcome (SK-OV-3 ovarian): inactive
GI50 (SNB-75 CNS): 245 nM
outcome (SNB-75 CNS): inactive
